Measured values: patent publication US20230167073A1 (Teijin Pharma Limited, priority 2020, published 2023)

Target: T1, Human TRPC6 (Homo sapiens, UniProt Q9Y210)
T1 construct: expressed in transfected cells
T1 sequence (Q9Y210 1-931): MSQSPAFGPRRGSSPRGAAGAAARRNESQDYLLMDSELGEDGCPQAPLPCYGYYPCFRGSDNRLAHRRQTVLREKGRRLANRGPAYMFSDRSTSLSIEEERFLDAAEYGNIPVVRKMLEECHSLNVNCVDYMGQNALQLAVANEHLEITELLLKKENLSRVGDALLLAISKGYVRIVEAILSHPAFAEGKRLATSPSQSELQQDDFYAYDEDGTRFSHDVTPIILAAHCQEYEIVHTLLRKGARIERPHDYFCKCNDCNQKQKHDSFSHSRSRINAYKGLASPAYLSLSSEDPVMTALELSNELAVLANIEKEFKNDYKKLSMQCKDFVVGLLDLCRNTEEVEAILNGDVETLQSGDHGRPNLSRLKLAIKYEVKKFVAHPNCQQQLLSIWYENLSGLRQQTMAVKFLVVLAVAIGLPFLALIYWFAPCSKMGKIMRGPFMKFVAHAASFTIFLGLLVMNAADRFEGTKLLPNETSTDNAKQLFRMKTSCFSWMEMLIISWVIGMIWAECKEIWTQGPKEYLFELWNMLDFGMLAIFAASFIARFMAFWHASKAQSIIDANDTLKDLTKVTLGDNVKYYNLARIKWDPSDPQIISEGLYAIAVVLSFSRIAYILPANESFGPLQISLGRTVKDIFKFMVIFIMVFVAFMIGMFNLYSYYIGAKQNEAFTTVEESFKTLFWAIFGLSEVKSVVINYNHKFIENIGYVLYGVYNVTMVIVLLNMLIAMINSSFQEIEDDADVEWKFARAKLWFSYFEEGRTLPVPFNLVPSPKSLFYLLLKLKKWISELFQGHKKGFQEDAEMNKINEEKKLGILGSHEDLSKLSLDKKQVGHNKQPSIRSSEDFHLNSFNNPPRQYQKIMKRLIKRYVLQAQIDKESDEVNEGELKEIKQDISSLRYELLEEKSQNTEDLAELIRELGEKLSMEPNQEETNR
Test: Evaluation of TRPC6 channel inhibitory activity (1), FLIPR Calcium 5 Assay Kit, OAG stimulation (Compound Nos. 1-1293)
Type: cell-based
Settings: Human TRPC6 stably-expressing cells, OAG 30 μM, FLIPR Calcium 5 Assay Kit; read-out: Inhibitory activity (pIC50 class) (converted)
Procedure, shortened: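 Calcium influx read by FLIPR fluorescence in cells stably expressing human TRPC6, dye-loaded 30 min. Compounds preincubated 20 min, then OAG stimulation at 30 μM final. Inhibition fitted by four-parameter logistic regression to give pIC50, reported as +/++/+++ categories.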

Row | Compound | IC50
1 | Cc1nc(Oc2cc(C#N)ccc2-n2cc(C(O)CN)cn2)cc(-c2cccc(F)c2)n1 (centres unmarked) [Compound 141, 4-[4-(2-amino-1-hydroxyethyl)pyrazol-1-yl]-3-[6-(3-fluorophenyl)-2-methylpyrimidin-4-yl]oxybenzonitrile] | 0.01 to 1 µM
2 | Cc1ccc(-c2cc(Oc3cc(C#N)ccc3-n3cc(C(O)CN)cn3)nc(C)n2)cc1 (centres unmarked) [Compound 142, 4-[4-(2-amino-1-hydroxyethyl)pyrazol-1-yl]-3-[2-methyl-6-(4-methylphenyl)pyrimidin-4-yl]oxybenzonitrile] | 0.01 to 1 µM
3 | Cc1nc(Oc2cc(C#N)ccc2-c2nc(C)c(CN(C)C)s2)cc(-c2ccccc2)n1 [Compound 143, 4-[5-[(dimethylamino)methyl]-4-methyl-1,3-thiazol-2-yl]-3-(2-methyl-6-phenylpyrimidin-4-yl)oxybenzonitrile] | > 1 µM
4 | Cc1nc(Oc2cc(C#N)ccc2-n2ccc(C(O)CN)n2)cc(N2CCOCC2)n1 (centres unmarked) [Compound 144, 4-[3-(2-amino-1-hydroxyethyl)pyrazol-1-yl]-3-(2-methyl-6-morpholin-4-ylpyrimidin-4-yl)oxybenzonitrile] | 0.01 to 1 µM
5 | N#Cc1ccc(-c2ccc(CCN)cc2)c(Oc2cc(N3CCOCC3)cnn2)c1 [Compound 145, 4-[4-(2-aminoethyl)phenyl]-3-(5-morpholin-4-ylpyridazin-3-yl)oxybenzonitrile] | 0.01 to 1 µM
6 | Cc1nc(Oc2cc(C#N)ccc2-n2cc(C(=O)CN)cn2)cc(-c2ccccc2)n1 [Compound 146, 4-[4-(2-aminoacetyl)pyrazol-1-yl]-3-(2-methyl-6-phenylpyrimidin-4-yl)oxybenzonitrile] | > 1 µM
7 | N#Cc1ccc(-c2ccc(CCN)nc2)c(Oc2cc(N3CCOCC3)nc(C(F)(F)F)n2)c1 [Compound 147, 4-[6-(2-aminoethyl)pyridin-3-yl]-3-[6-morpholin-4-yl-2-(trifluoromethyl)pyrimidin-4-yl]oxybenzonitrile] | 0.01 to 1 µM
8 | N#Cc1ccc(-c2ccc(CCN)cn2)c(Oc2cc(N3CCOCC3)nc(C(F)(F)F)n2)c1 [Compound 148, 4-[5-(2-aminoethyl)pyridin-2-yl]-3-[6-morpholin-4-yl-2-(trifluoromethyl)pyrimidin-4-yl]oxybenzonitrile] | 0.01 to 1 µM
9 | Cc1nc(Oc2cc(C#N)ccc2-c2ccc(C(O)CN)c(F)c2)cc(N2CCOCC2)n1 (centres unmarked) [Compound 149, 4-[4-(2-Amino-1-hydroxyethyl)-3-fluorophenyl]-3-(2-methyl-6-morpholin-4-ylpyrimidin-4-yl)oxybenzonitrile] | < 0.01 µM
10 | Cc1nc(Oc2cc(C#N)ccc2-c2ccc(C(O)CN)c(Cl)c2)cc(N2CCOCC2)n1 (centres unmarked) [Compound 150, 4-[4-(2-amino-1-hydroxyethyl)-3-chlorophenyl]-3-(2-methyl-6-morpholin-4-ylpyrimidin-4-yl)oxybenzonitrile] | < 0.01 µM
11 | Cc1nc(Oc2cc(C#N)ccc2-c2ccc(C(O)CN)c(C(F)(F)F)c2)cc(N2CCOCC2)n1 (centres unmarked) [Compound 151, 4-[4-(2-amino-1-hydroxyethyl)-3-(trifluoromethyl)phenyl]-3-(2-methyl-6-morpholin-4-ylpyrimidin-4-yl)oxybenzonitrile] | 0.01 to 1 µM
12 | Cc1nc(Oc2cc(C#N)ccc2-c2ccc(C(O)CN)c(O)c2)cc(N2CCOCC2)n1 (centres unmarked) [Compound 152, 4-[4-(2-amino-1-hydroxyethyl)-3-hydroxyphenyl]-3-(2-methyl-6-morpholin-4-ylpyrimidin-4-yl)oxybenzonitrile] | 0.01 to 1 µM
13 | Cc1nc(Oc2cc(C#N)ccc2-c2ccc(C(O)CN)c(F)c2F)cc(N2CCOCC2)n1 (centres unmarked) [Compound 153, 4-[4-(2-amino-1-hydroxyethyl)-2,3-difluorophenyl]-3-(2-methyl-6-morpholin-4-ylpyrimidin-4-yl)oxybenzonitrile] | < 0.01 µM
14 | N#Cc1ccc(-n2cc(C(O)CN)cn2)c(Oc2cnnc(-c3ccccc3)c2)c1 (centres unmarked) [Compound 154, 4-[4-(2-amino-1-hydroxyethyl)pyrazol-1-yl]-3-(6-phenylpyridazin-4-yl)oxybenzonitrile] | 0.01 to 1 µM
15 | N#Cc1ccc(-n2cc(C(O)CN)cn2)c(Oc2cc(N3CCOCC3)nc(C(F)(F)F)n2)c1 (centres unmarked) [Compound 155, 4-[4-(2-amino-1-hydroxyethyl)pyrazol-1-yl]-3-[6-morpholin-4-yl-2-(trifluoromethyl)pyrimidin-4-yl]oxybenzonitrile] | 0.01 to 1 µM
16 | COc1cc(-c2ccc(C#N)cc2Oc2cc(N3CCOCC3)nc(C)n2)ccc1C(O)CN (centres unmarked) [Compound 156, 4-[4-(2-amino-1-hydroxyethyl)-3-methoxyphenyl]-3-(2-methyl-6-morpholin-4-ylpyrimidin-4-yl)oxybenzonitrile] | 0.01 to 1 µM
17 | Cc1nc(Oc2cc(C#N)ccc2-c2ccc(C(O)CN)cc2C)cc(N2CCOCC2)n1 (centres unmarked) [Compound 157, 4-[4-(2-amino-1-hydroxyethyl)-2-methylphenyl]-3-(2-methyl-6-morpholin-4-ylpyrimidin-4-yl)oxybenzonitrile] | < 0.01 µM
18 | Cc1nc(Oc2cc(C#N)ccc2-c2ccc(C(O)CN)c(CC#N)c2)cc(N2CCOCC2)n1 (centres unmarked) [Compound 158, 4-[4-(2-amino-1-hydroxyethyl)-3-(cyanomethyl)phenyl]-3-(2-methyl-6-morpholin-4-ylpyrimidin-4-yl)oxybenzonitrile] | 0.01 to 1 µM
19 | Cc1nc(Oc2cc(C#N)ccc2-n2cc(C(O)CN)cn2)cc(-c2cccc(Cl)c2)n1 (centres unmarked) [Compound 159, 4-[4-(2-amino-1-hydroxyethyl)pyrazol-1-yl]-3-[6-(3-chlorophenyl)-2-methylpyrimidin-4-yl]oxybenzonitrile] | < 0.01 µM
20 | Cn1nc(-c2ccccn2)cc1Oc1cc(C#N)ccc1-c1ccc(CCN)cc1 [Compound 160, 4-[4-(2-aminoethyl)phenyl]-3-(2-methyl-5-pyridin-2-ylpyrazol-3-yl)oxybenzonitrile] | < 0.01 µM
21 | Cn1nc(-c2ccccn2)cc1Oc1cc(C#N)ccc1-c1ccc(C(O)CN)cc1 (centres unmarked) [Compound 161, 4-[4-(2-amino-1-hydroxyethyl)phenyl]-3-(2-methyl-5-pyridin-2-ylpyrazol-3-yl)oxybenzonitrile] | < 0.01 µM
22 | Cn1nc(-c2ccccn2)cc1Oc1cc(C#N)ccc1-c1ccc(CCN)nc1 [Compound 162, 4-[6-(2-aminoethyl)pyridin-3-yl]-3-(2-methyl-5-pyridin-2-ylpyrazol-3-yl)oxybenzonitrile] | < 0.01 µM
23 | Cn1nc(-c2cccnc2)cc1Oc1cc(C#N)ccc1-c1ccc(CCN)cc1 [Compound 163, 4-[4-(2-aminoethyl)phenyl]-3-(2-methyl-5-pyridin-3-ylpyrazol-3-yl)oxybenzonitrile] | 0.01 to 1 µM
24 | Cc1ccc(-c2cc(Oc3cc(C#N)ccc3-c3ccc(CCN)cc3)n(C)n2)nc1 [Compound 164, 4-[4-(2-aminoethyl)phenyl]-3-[2-methyl-5-(5-methylpyridin-2-yl)pyrazol-3-yl]oxybenzonitrile] | < 0.01 µM
25 | Cn1nc(-c2ccc(F)cc2)cc1Oc1cc(C#N)ccc1-c1ccc(CCN)cc1 [Compound 165, 4-[4-(2-aminoethyl)phenyl]-3-[5-(4-fluorophenyl)-2-methylpyrazol-3-yl]oxybenzonitrile] | 0.01 to 1 µM
26 | Cc1nc(Oc2cc(C#N)ccc2-c2ccc(CCN)nc2)cc(-c2ccccn2)n1 [Compound 166, 4-[6-(2-aminoethyl)pyridin-3-yl]-3-(2-methyl-6-pyridin-2-ylpyrimidin-4-yl)oxybenzonitrile] | 0.01 to 1 µM
